Test system: sterile liquid medium inoculated with fresh morning saliva
Assay: In vitro test for reduction of bad breath (inoculated medium smelled by a panel of testers)
Type: cell-based
Details: 0.05% added to inoculated samples, incubated at 37° C. for some days
Procedure: In Vitro Test for Reduction of Bad Breath
The test is based on the work of Goldberg and Rosenberg (Production of Oral Malodor in an in vitro System, S. Goldberg and M. Rosenberg, pp. 143-150, in: Bad Breath—A Multidisciplinary Approach, eds: D. van Steenberghe, M. Rosenberg, Leuven University Press, 1996) and was adapted for better reproducibility.
A sterile liquid medium inoculated with fresh morning saliva is incubated at 37° C. for some days and then smelled by a panel of testers.
An intensive, typical bad breath odour had formed. Non-inoculated controls have only a weak smell of the medium.
Triclosan® (5-chloro-2-(2,4-dichlorophenoxy)phenol) was added to inoculated samples in a concentration of 0.05% as a control for the tests.
By addition of in each case 0.01% of the mixtures E-1 to E-6 according to the invention (see Table 1) to inoculated samples, no smell—analogously to Triclosan®—was to be found after the incubation time. This value also corresponds to the minimum active concentration.
If 0.05% of a mixture according to the invention is added to the inoculated medium only one hour before the sensory evaluation, an unpleasant mixed smell of bad breath and a weak note of the mixture according to the invention is to be observed.

Oc1cc(Cl)ccc1Oc1ccc(Cl)cc1Cl [Triclosan, 5-chloro-2-(2,4-dichlorophenoxy)phenol]
smell after the incubation: same weak smell of the medium as the non-inoculated samples

From US20070218016A1, “Use of Aroma Substance Mixtures as Agents Against Bad Breath” (SYMRISE GMBH & CO. KG, priority 2004, published 2007)
